Laboratory results published in US7495114B2, “Cytotoxic agents containing novel potent taxanes and their therapeutic use” (Immunogen Inc., priority 2002, dated 2009).
pIC50: −log10 of the molar value.

What was measured:
Format in all cases: cell-based, human
A549 cells = assay: In vitro cytotoxicity of taxanes, plating efficiency (clonogenic) assay, A549; settings: read-out: IC50 value towards A549 cells
Description: (§1) The new taxanes and the disulfide containing taxane drugs of the invention can be evaluated for their ability to suppress proliferation of human tumor cell lines in vitro.
(§2) The sulfide, disulfide, and sulfhydryl containing taxane drugs of the invention can be evaluated for their ability to suppress proliferation of various human tumor cell lines in vitro. Four adherent cell lines, A431 (human epidermoid carcinoma), SKBR3 (human breast tumor), A549 (human lung carcinoma) and MCF-7 (human breast tumor), and the non-adherent cell line, Namalwa (Burkitt's lymphoma) are used for the assessment of cytotoxicity of these compounds. Cells are exposed to the compounds for 72 hours and the surviving fractions of cells are measured in direct assays.
(§3) The cytotoxic potency of taxane 3′ was similarly confirmed. […] The cells were then fixed with formaldehyde, stained with crystal violet, and counted under a low-magnification microscope. Plating efficiencies were then determined from the colony numbers and surviving fractions of cells were calculated as the ratio of the plating efficiency of the treated sample and the plating efficiency of the control.
(§4) The new taxoids and the disulfide containing taxane drugs of the invention were evaluated for their ability to suppress proliferation of human tumor cell lines in vitro. […]
(§5) 18 and 37 was measured as follows. […]

MCF-7 cells = assay: In vitro cytotoxicity of taxanes, plating efficiency (clonogenic) assay, MCF-7; settings: read-out: IC50 value towards MCF-7 cells
Description: as §1, §2, §3, §4, §5

A431 cells = assay: In vitro cytotoxicity of taxanes, plating efficiency (clonogenic) assay, A431; settings: read-out: IC50 value towards A431 cells
Description: as §2
A431, A549 and MCF-7 cells were plated at different densities in 6-well tissue-culture plates in DMEM medium supplemented with 10% fetal calf serum. Taxane 2′, at varying concentrations, was added and the cells were maintained in a humidified atmosphere at 37° C. and 6% CO2 until colonies of approximately 20 cells or more were formed (6 to 10 days). Control plates contained no taxane. The cells were then fixed with formaldehyde, stained with crystal violet, and counted under a low-magnification microscope. Plating efficiencies were then determined from the colony numbers and surviving fractions of cells were calculated as the ratio of the plating efficiency of the treated sample and the plating efficiency of the control.

| Compound | pIC50 (A549 cells) | pIC50 (MCF-7 cells) | pIC50 (A431 cells) |
| --- | --- | --- | --- |
| COc1ccc(OC)c(C(=O)OC2C3C4(OC(C)=O)COC4CC(OC(=O)CCSSC)C3(C)C(=O)C(O)C3=C(C)C(OC(=O)C(O)C(C=C(C)C)NC(=O)OC(C)(C)C)CC2(O)C3(C)C)c1 (stereo not drawn) [Taxane 3′, 3′-dephenyl-3′-(isobutenyl)-2-debenzoyl-2-(2,5-dimethoxybenzoyl)-7-(methyldisulfonyl-propanoyl)-docetaxel] | 9.74 | 10.20 | – |
| 3′-dephenyl-3′-(isobutenyl)-7-(methyldisulfonyl-propanoyl)-docetaxel [Taxane 2′] | – | – | 9.10 |
